Tests used:
Format in all cases: cell-based
[1] = tested on: Mikroorganismen; experiment: synergistic enhancement of antimicrobial agents by cyclic 1,2-alkylene carbonates; settings: combination of cyclic 1,2-alkylene carbonate with preservative or antimicrobial additive
Excerpt: Die Verwendung dieser zyklischen 1,2-Alkylencarbonate zur Herstellung von Mischungen mit herkömmlichen Konservierungsmitteln und der erfindungsgemäße Einsatz dieser Mischungen in kosmetischen oder dermatologischen Anwendungen zeigte überraschenderweise, dass die Effizienz der Konservierungsmittel in Konzentrationen, die für sich allein keine antimikrobielle Wirkung mehr zeigten, durch den Zusatz der zyklischen 1,2-Alkylencarbonate erheblich gesteigert werden kann und somit der Anteil der Konservierungsmittel in den entsprechenden Produkten signifikant gesenkt werden konnte.
Zyklische 1,2-Alkylencarbonate, für die dieser synergistische Effekt nachgewiesen werden konnten, finden sich bevorzugt in der Gruppe der linearen und verzweigten 1,2-Alkylencarboate mit einer Kettenlänge von n = 4 - 8, z.B. 1,2-Butylencarbonat, 1,2-Pentylencarbonat, 1,2-Hexylencarbonat und 1,2-Octylencarbonat.
Konservierungsmittel im Sinne der Erfindung, für die dieser synergistische Effekt nachgewiesen werden konnte, sind Methylparaben, Ethylparaben, Propylparaben, Isopropylparaben, Butylparaben und die Mischungen dieser Parabene, Phenoxyethanol, Benzoesäure und ihre Ester und Salze, Sorbinsäure und ihre Salze sowie Benzylalkohol. Die zu erwartenden synergistischen Effekte von 1,2-Alkylencarbonaten mit Iodopropinylbutylcarbamat, Formaldehyd and Formaldehyd-Abspalter (z.B. DMDM-Hydantoin, Imidazolinylharnstoff, Paraformaldehyd), Chlorphenesin, Bronopol, Methyldibromglutaronitril, Dehydracetsäure und ihre Salze, Polyaminopropylbiguanide, Chlorhexidin und seine Derivate (z.B. Chlorhexidinacetat, Chlorhexidingluconat, Chlorhexidinhydrochlorid), Methylisothiazolinon und Methylchloroisothiazolinone neben den in Anhang 6, Teil A und B der Kosmetikverordnung aufgeführten weiteren Stoffklassen oder Mischungen der genannten Konservierungsmittel werden ebenfalls in dieser Erfindung beansprucht.
Multifunktionellen Kosmetikadditive mit antimikrobiellen Eigenschaften im Sinne dieser Erfindung finden sich vor allem in der Gruppe der mittelkettigen polaren Substanzen. Diese Gruppe umfasst Polyole mit 5 - 12 Kohlenstoffatomen, wie z.B. Pentylenglycol, Hexylenglycol, 1,2-Hexandiol, Caprylyl Glycol oder 2-Methyl-1,3-propandiol, Monoester aus Glycerin und Fettsäuren der Kettenlänge n = 6 - 12, wie z.B. Glyceryl Caprylate, Glyceryl Caprate oder Glyceryl Laurate, Ether der Glycerins mit linearen oder verzweigten Alkanolen der Kettenlänge n = 6 - 12, wie z.B. das Ethylhexylglycerin sowie N-Acylderivate von Aminosäuren, z.B. N.Undecenylglycin.

[2] = tested on: Aspergillus Niger; experiment: microbiological challenge test (preservative efficacy, Ph. Eur. 1997 5.1.3); settings: emulsion with 0,50 preservative, 2,00 carbonate where named
Excerpt: (§1) Ergebnisse des mikrobiologischen Belastungstests, durchgeführt nach europäischem Arzneibuch 1997: 5.1.3 Prüfung auf ausreichende Konservierung (entspricht Deutschem Arzneibuch: VIII.14) für die Beispielrezeptur nach 1.:
(§2) Ergebnisse des mikrobiologischen Belastungstests, durchgeführt nach europäischem Arzneibuch 1997: 5.1.3 Prüfung auf ausreichende Konservierung (entspricht Deutschem Arzneibuch: VIII.14) für die Beispielrezeptur nach 3.:
(§3) Ergebnisse des mikrobiologischen Belastungstests, durchgeführt nach europäischem Arzneibuch 1997: 5.1.3 Prüfung auf ausreichende Konservierung (entspricht Deutschem Arzneibuch: VIII.14) für die Beispielrezeptur nach 4.:
(§4) Ergebnisse des mikrobiologischen Belastungstests, durchgeführt nach europäischem Arzneibuch 1997: 5.1.3 Prüfung auf ausreichende Konservierung (entspricht Deutschem Arzneibuch: VIII.14) für die Beispielrezeptur nach 5.:
(§5) Ergebnisse des mikrobiologischen Belastungstests, durchgeführt nach europäischem Arzneibuch 1997: 5.1.3 Prüfung auf ausreichende Konservierung (entspricht Deutschem Arzneibuch: VIII.14) für die Beispielrezeptur nach 6.: […]

[3] = tested on: Candida Albicans; experiment: as above; settings: emulsion with 0,50 preservative, 2,00 carbonate where named
Excerpt: as §1, §2, §3, §4, §5

[4] = tested on: Escherichia Coli; experiment: as above; settings: emulsion with 0,50 preservative, 2,00 carbonate where named
Excerpt: as §1, §2, §3, §4, §5

[5] = tested on: Pseudomonas Aeruginosa; experiment: as above; settings: emulsion with 0,50 preservative, 2,00 carbonate where named
Excerpt: as §1, §2, §3, §4, §5

[6] = tested on: Staphylococcus aureus; experiment: as above; settings: emulsion with 0,50 preservative, 2,00 carbonate where named
Excerpt: as §1, §2, §3, §4, §5

SMILES | synergistische Effekt [1] | Koloniebildende Einheiten / g nach Beimpfung mit: Aspergillus Niger ([2]; 0 Tage (inoculum)) | Koloniebildende Einheiten / g nach Beimpfung mit: Aspergillus Niger ([2]; 2 Tage) | Koloniebildende Einheiten / g nach Beimpfung mit: Aspergillus Niger ([2]; 7 Tage) | Koloniebildende Einheiten / g nach Beimpfung mit: Aspergillus Niger ([2]; 14 Tage) | Koloniebildende Einheiten / g nach Beimpfung mit: Aspergillus Niger ([2]; 28 Tage) | Koloniebildende Einheiten / g nach Beimpfung mit: Candida Albicans ([3]; 0 Tage (inoculum)) | Koloniebildende Einheiten / g nach Beimpfung mit: Candida Albicans ([3]; 2 Tage) | Koloniebildende Einheiten / g nach Beimpfung mit: Candida Albicans ([3]; 7 Tage) | Koloniebildende Einheiten / g nach Beimpfung mit: Candida Albicans ([3]; 14 Tage) | Koloniebildende Einheiten / g nach Beimpfung mit: Candida Albicans ([3]; 28 Tage) | Koloniebildende Einheiten / g nach Beimpfung mit: Escherichia Coli ([4]; 0 Tage (inoculum)) | Koloniebildende Einheiten / g nach Beimpfung mit: Escherichia Coli ([4]; 2 Tage) | Koloniebildende Einheiten / g nach Beimpfung mit: Escherichia Coli ([4]; 7 Tage) | Koloniebildende Einheiten / g nach Beimpfung mit: Escherichia Coli ([4]; 14 Tage) | Koloniebildende Einheiten / g nach Beimpfung mit: Escherichia Coli ([4]; 28 Tage) | Koloniebildende Einheiten / g nach Beimpfung mit: Pseudomonas Aeruginosa ([5]; 0 Tage (inoculum)) | Koloniebildende Einheiten / g nach Beimpfung mit: Pseudomonas Aeruginosa ([5]; 2 Tage) | Koloniebildende Einheiten / g nach Beimpfung mit: Pseudomonas Aeruginosa ([5]; 7 Tage) | Koloniebildende Einheiten / g nach Beimpfung mit: Pseudomonas Aeruginosa ([5]; 14 Tage) | also measured
CCC1COC(=O)O1 (stereo not drawn) [BC, 1,2-Butylencarbonat] | Besonders ausgeprägt Effekte | – | – | – | – | – | – | – | – | – | – | – | – | – | – | – | – | – | – | – | –
OCc1ccccc1 [Benzylalkohol] | – | 170000 Koloniebildende Einheiten / g | 64000 Koloniebildende Einheiten / g | 60000 Koloniebildende Einheiten / g | 59000 Koloniebildende Einheiten / g | 61000 Koloniebildende Einheiten / g | 410000 Koloniebildende Einheiten / g | 70000 Koloniebildende Einheiten / g | 50000 Koloniebildende Einheiten / g | 50000 Koloniebildende Einheiten / g | 45000 Koloniebildende Einheiten / g | 810000 Koloniebildende Einheiten / g | 100000 Koloniebildende Einheiten / g | 100000 Koloniebildende Einheiten / g | 52000 Koloniebildende Einheiten / g | 8000 Koloniebildende Einheiten / g | 210000 Koloniebildende Einheiten / g | 40000 Koloniebildende Einheiten / g | 12000 Koloniebildende Einheiten / g | 1000 Koloniebildende Einheiten / g | Koloniebildende Einheiten / g nach Beimpfung mit: Pseudomonas Aeruginosa ([5]; 28 Tage): <10 Koloniebildende Einheiten / g; Koloniebildende Einheiten / g nach Beimpfung mit: Staphylococcus aureus ([6]; 0 Tage (inoculum)): 250000 Koloniebildende Einheiten / g; Koloniebildende Einheiten / g nach Beimpfung mit: Staphylococcus aureus ([6]; 2 Tage): 100000 Koloniebildende Einheiten / g; Koloniebildende Einheiten / g nach Beimpfung mit: Staphylococcus aureus ([6]; 7 Tage): 4000 Koloniebildende Einheiten / g; Koloniebildende Einheiten / g nach Beimpfung mit: Staphylococcus aureus ([6]; 14 Tage): <10 Koloniebildende Einheiten / g; Koloniebildende Einheiten / g nach Beimpfung mit: Staphylococcus aureus ([6]; 28 Tage): <10 Koloniebildende Einheiten / g
CCCCCCC(O)CO (stereo not drawn) [Caprylyl Glycol] | Besonders ausgeprägte Effekte | – | – | – | – | – | – | – | – | – | – | – | – | – | – | – | – | – | – | – | –
CCCCCCCC(=O)OCC(O)CO (stereo not drawn) [Glyceryl Caprylate] | Besonders ausgeprägte Effekte | – | – | – | – | – | – | – | – | – | – | – | – | – | – | – | – | – | – | – | –
CCCC1COC(=O)O1 (stereo not drawn) [PC, 1,2-Pentylencarbonat] | Besonders ausgeprägt Effekte | – | – | – | – | – | – | – | – | – | – | – | – | – | – | – | – | – | – | – | –
OCCOc1ccccc1 [Phenoxyethanol] | – | 320000 Koloniebildende Einheiten / g | 60000 Koloniebildende Einheiten / g | 60000 Koloniebildende Einheiten / g | 60000 Koloniebildende Einheiten / g | 50000 Koloniebildende Einheiten / g | 310000 Koloniebildende Einheiten / g | 100000 Koloniebildende Einheiten / g | 100000 Koloniebildende Einheiten / g | 100000 Koloniebildende Einheiten / g | 80000 Koloniebildende Einheiten / g | 3000000 Koloniebildende Einheiten / g | 100000 Koloniebildende Einheiten / g | 100000 Koloniebildende Einheiten / g | 100000 Koloniebildende Einheiten / g | 70000 Koloniebildende Einheiten / g | 600000 Koloniebildende Einheiten / g | 8000 Koloniebildende Einheiten / g | 10000 Koloniebildende Einheiten / g | 10000 Koloniebildende Einheiten / g | Koloniebildende Einheiten / g nach Beimpfung mit: Pseudomonas Aeruginosa ([5]; 28 Tage): 10000 Koloniebildende Einheiten / g; Koloniebildende Einheiten / g nach Beimpfung mit: Staphylococcus aureus ([6]; 0 Tage (inoculum)): 380000 Koloniebildende Einheiten / g; Koloniebildende Einheiten / g nach Beimpfung mit: Staphylococcus aureus ([6]; 2 Tage): 100000 Koloniebildende Einheiten / g; Koloniebildende Einheiten / g nach Beimpfung mit: Staphylococcus aureus ([6]; 7 Tage): 100000 Koloniebildende Einheiten / g; Koloniebildende Einheiten / g nach Beimpfung mit: Staphylococcus aureus ([6]; 14 Tage): 84000 Koloniebildende Einheiten / g; Koloniebildende Einheiten / g nach Beimpfung mit: Staphylococcus aureus ([6]; 28 Tage): 80000 Koloniebildende Einheiten / g

Reference: EP1752193A1, “Use of one or more cyclic 1,2-alkylene carbonates as stabilizer and activity enhancer for preservatives, corresponding composition” (Dr. Straetmans Chemische Produkte GmbH, priority 2005, dated 2007)
